Results reported in ChEMBL document CHEMBL1201862, “PubChem BioAssay data set” (2004).
The source made the active and inactive calls.

Experiments:
[1] = Luminescence Cell-Based Dose Response HTS to Identify Activators of Luciferase Translation or Activity in H4 […] Cells. [Related pubchem assays: 1829 (Project Summary), 1814 (Primary HTS)]; format: functional
H4 = test: Luminescence Cell-Based Dose Response HTS to Identify Activators of 5'UTR Stem-Loop Driven Prion Protein mRNA Translation in H4 Neuroglioblastoma Cells. [Related pubchem assays: 1829 (Project Summary), 1814 (Primary HTS)]; format: functional; details: Homo sapiens
Prothrombin [2] = biological target: Prothrombin (Homo sapiens, UniProt P00734); test: Thrombin 1536 HTS Dose Response Confirmation. [Related pubchem assays: 1046 (Thrombin 1536 HTS; hits were confirmed in this assay)]; format: functional
Coagulation factor XII = biological target: T1, Coagulation factor XII (Homo sapiens, UniProt P00748); format: functional;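 also: activated factor XIIa alpha cleaving a fluorogenic AMC peptide substrate; inhibitor potency from loss of enzyme activity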
T1 sequence (P00748 whole entry): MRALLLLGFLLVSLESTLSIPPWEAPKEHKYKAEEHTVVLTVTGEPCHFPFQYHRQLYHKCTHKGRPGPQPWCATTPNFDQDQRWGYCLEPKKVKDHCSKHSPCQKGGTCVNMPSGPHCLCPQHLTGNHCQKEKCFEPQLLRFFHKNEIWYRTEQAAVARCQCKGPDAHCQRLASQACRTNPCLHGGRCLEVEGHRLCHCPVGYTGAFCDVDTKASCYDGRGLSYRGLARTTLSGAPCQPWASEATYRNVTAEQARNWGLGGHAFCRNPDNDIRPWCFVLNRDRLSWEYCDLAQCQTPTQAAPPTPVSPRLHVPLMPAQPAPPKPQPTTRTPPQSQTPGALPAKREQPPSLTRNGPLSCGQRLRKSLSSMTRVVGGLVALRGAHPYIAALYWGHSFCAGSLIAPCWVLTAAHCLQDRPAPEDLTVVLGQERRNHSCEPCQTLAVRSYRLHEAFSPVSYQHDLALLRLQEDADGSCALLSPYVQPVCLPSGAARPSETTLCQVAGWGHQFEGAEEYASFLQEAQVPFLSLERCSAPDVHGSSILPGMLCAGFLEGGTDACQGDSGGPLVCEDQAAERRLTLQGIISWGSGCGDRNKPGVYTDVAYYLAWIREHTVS

[3] = biological target: T2, Nucleotide-binding oligomerization domain-containing protein 1 (Homo sapiens, UniProt Q9Y239); test: NOD1 signaling inhibitors, SAR follow-up, revised (AID 2333); format: functional
T2 sequence (Q9Y239 whole entry): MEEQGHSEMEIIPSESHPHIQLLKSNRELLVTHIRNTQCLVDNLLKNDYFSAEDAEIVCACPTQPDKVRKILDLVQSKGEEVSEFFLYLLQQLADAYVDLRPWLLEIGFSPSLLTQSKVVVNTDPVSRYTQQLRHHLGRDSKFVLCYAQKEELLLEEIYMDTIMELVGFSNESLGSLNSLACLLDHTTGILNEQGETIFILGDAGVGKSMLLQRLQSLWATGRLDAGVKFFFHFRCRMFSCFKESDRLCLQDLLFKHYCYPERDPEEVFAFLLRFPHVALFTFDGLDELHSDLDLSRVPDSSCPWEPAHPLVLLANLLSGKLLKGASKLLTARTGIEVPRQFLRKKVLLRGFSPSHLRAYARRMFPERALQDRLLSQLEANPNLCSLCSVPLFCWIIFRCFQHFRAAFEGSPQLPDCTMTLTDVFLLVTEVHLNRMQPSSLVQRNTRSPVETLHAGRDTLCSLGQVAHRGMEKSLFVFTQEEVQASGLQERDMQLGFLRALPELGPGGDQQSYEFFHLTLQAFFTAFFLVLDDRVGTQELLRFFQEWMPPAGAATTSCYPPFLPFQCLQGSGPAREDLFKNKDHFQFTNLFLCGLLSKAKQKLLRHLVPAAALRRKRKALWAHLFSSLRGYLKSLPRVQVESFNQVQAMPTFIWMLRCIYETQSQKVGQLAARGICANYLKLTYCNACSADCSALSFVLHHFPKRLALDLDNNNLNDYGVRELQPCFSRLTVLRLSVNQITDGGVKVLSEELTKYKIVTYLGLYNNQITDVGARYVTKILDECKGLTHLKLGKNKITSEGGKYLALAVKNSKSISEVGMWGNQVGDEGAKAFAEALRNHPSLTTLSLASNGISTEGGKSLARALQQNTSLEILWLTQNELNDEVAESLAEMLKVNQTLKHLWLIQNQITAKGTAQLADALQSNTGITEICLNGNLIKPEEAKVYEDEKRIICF

[4] = biological target: Nucleotide-binding oligomerization domain-containing protein 2 (Homo sapiens, UniProt Q9HC29); test: NOD2 signaling inhibitors, cell-based, luminescence, uHTS, HEK293 (AID 1566); format: functional
Tumor necrosis factor = Tumor necrosis factor (Homo sapiens, UniProt P01375); test: TNFa-triggered NF-kB activation inhibitors, SAR follow-up, cell-based, revised (AID 2337); format: functional
[5] = biological target: DNA damage-inducible transcript 3 protein (Mus musculus, UniProt P35639); format: functional, Cricetulus griseus
SUMO-activating enzyme [6] = biological target: T3, SUMO-activating enzyme (Homo sapiens, UniProt Q9UBT2); test: inhibitors of in vitro SUMOylation cascade, primary screen, biochemical, HTRF, uHTS (AID 2006); format: protein-complex assay
SUMO-activating enzyme [7] = biological target: T3, SUMO-activating enzyme; test: SUMOylation inhibitor hit validation, confirmation, SUMOylation inhibitor project, biochemical, AlphaScreen (AID 2018); format: functional
[8] = Luminescence Cell-Based Dose Retest to Confirm Inhibitors of Cancer Stem Cells. [Related pubchem assays (depositor defined):AID2717, AID2721]; format: functional, Homo sapiens
Troponin, cardiac muscle = Troponin, cardiac muscle (Homo sapiens, UniProt P19429+P45379+P63316); test: Fluorescence-based biochemical high throughput dose response assay for activators of the calcium sensitivity of cardiac Regulated Thin Filaments (RTF). [Related pubchem assays (depositor defined):AID493008, AID493018, AID504382, AID504383]; format: protein-complex assay
INS1 = test: beta cell apoptosis inhibitors, cytokine rescue, dose response, luminescence, retest (AID 449756); format: functional, cell-based; details: Rattus norvegicus;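 also: cell death triggered by IL-1 beta plus TNF-alpha plus IFN-gamma mixture; protective hits raise ATP signal compared with cytokine alone wells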
CHO = test: cytotoxicity in TLR9-MyD88 CHO cells, dose response, cytotoxicity control for TLR9-MyD88 binding inhibitor project, cell-based, luminescence (AID 588339); format: functional, hamster; details: Cricetulus griseus;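 also: CHO cells stably coexpressing TLR9 and MyD88 fusions from primary screen; compound exposure lasted 48 hours before viability readout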
[9] = growth suppression of beta-catenin-knockout colon cells, dose response, cell-based, HCT116, human colon tumor (AID 1045); format: functional;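 also: HCT116 colon tumor cells with beta catenin knocked out; cells exposed to compound for 60 hours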
Beta Lactamase = Beta Lactamase (Pseudomonas aeruginosa, UniProt Q932Y6); test: beta-lactamase reporter inhibitor potency, dose response, artefact control for TLR9-MyD88 binding inhibitor project, BLA reporter cells, FRET fluorescence (AID 588341); format: cell-based;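 also: cell based assay in CHO-K1 cells stably expressing beta-lactamase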
[10] = growth suppression of PTEN-null colon cells, dose response, cell-based, HCT116 PTEN knockout (AID 1047); format: functional;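 also: HCT116 colon tumor cells with PTEN knocked out; cells exposed to compound for 60 hours before readout; potency for loss of cell viability measured by luminescence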
[11] = biological target: T4, Calpain-2 catalytic subunit (Sus scrofa, UniProt P43367); test: pig calpain II inhibitor potency, dose response, biochemical, fluorogenic peptide substrate (AID 1420); format: functional
T4 sequence (P43367 whole entry): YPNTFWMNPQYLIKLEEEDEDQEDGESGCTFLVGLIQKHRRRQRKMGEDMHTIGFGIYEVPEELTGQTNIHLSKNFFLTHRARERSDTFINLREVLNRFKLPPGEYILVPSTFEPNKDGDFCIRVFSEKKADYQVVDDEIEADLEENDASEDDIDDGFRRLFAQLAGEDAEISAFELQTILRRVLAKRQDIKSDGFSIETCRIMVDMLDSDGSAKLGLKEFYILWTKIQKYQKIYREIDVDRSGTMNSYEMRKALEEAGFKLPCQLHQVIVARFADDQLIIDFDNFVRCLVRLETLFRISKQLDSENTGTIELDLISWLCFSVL

[12] = biological target: 26S proteasome non-ATPase regulatory subunit 14 (Homo sapiens, UniProt O00487); test: inhibition of proteasome subunit RPN11 – biochemical, fluorescence polarization, uHTS hits, confirmation (AID 602368); format: functional
Prothrombin [13] = biological target: Prothrombin (Bos taurus, UniProt P00735); test: thrombin inhibition, dose response, biochemical, fluorescence polarization, uHTS hits (AID 602369); format: functional
[14] = biological target: T5, Tyrosine-protein phosphatase non-receptor type 11 (Homo sapiens, UniProt Q06124); test: SHP2 phosphatase inhibition, dose response, selectivity assay for STEP inhibitor project, biochemical (AID 602367); format: functional; details: read-out: IC50_Mean
T5 sequence (Q06124 whole entry): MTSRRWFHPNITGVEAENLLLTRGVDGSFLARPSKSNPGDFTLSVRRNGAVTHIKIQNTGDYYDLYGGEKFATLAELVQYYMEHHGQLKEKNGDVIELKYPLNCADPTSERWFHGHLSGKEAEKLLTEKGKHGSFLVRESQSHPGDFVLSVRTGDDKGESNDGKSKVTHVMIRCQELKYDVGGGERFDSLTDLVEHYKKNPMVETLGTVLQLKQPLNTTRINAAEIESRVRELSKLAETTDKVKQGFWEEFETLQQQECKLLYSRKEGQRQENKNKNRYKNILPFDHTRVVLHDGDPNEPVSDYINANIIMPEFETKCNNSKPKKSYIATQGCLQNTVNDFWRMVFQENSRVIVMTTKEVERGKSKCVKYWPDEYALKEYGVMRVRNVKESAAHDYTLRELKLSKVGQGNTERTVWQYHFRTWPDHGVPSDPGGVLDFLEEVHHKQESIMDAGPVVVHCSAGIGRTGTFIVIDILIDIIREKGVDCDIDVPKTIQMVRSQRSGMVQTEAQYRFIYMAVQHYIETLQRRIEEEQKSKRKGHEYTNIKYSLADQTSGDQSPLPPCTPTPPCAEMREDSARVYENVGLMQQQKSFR

[15] = biological target: 72 kDa type IV collagenase (Homo sapiens, UniProt P08253); test: Dose Response validation of uHTS RPN11 inhibitor hits using a MMP-2 Fluorescence assay.; format: functional
[16] = biological target: T6, Tyrosine-protein phosphatase non-receptor type 5 (Homo sapiens, UniProt P54829); test: STEP phosphatase inhibitors, confirmation, biochemical, fluorescence intensity, uHTS hits (AID 602372); format: functional; details: read-out: IC50_Mean
T6 sequence (P54829 whole entry): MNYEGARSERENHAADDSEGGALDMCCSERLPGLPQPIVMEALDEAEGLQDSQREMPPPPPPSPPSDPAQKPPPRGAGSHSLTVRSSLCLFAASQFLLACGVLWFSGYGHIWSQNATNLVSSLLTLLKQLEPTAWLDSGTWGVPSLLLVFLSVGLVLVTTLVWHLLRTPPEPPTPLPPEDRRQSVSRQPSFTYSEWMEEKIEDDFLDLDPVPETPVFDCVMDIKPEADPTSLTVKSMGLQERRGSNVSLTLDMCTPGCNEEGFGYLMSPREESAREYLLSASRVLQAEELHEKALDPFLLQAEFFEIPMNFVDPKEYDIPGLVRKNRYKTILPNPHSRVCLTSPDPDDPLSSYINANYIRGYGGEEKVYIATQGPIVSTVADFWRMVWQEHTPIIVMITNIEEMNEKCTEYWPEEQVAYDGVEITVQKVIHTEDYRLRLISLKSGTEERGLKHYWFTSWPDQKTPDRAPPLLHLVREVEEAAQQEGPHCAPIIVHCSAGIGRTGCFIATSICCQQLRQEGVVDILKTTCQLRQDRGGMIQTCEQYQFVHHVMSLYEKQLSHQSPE

[17] = biological target: Dual specificity protein phosphatase 3 (Homo sapiens, UniProt P51452); test: VHR phosphatase inhibition, dose response, selectivity assay for STEP inhibitor project, biochemical (AID 602374); format: functional; details: read-out: IC50_Mean
[18] = biological target: T7, Small ubiquitin-related modifier 1 (Homo sapiens, UniProt P63165); test: inhibitors of SUMO1 partner interactions, dose response, biochemical, FRET (AID 624383); format: functional; details: read-out: IC50_Mean
[19] = biological target: T7, Small ubiquitin-related modifier 1; test: inhibitors of SUMO1 peptide binding, dose response, biochemical, fluorescence polarization, uHTS hits (AID 624382); format: functional; details: read-out: IC50_Mean
[20] = biological target: G-protein coupled receptor 55 (Homo sapiens, UniProt Q9Y2T6); test: GPR55 antagonists blocking LPI-driven arrestin recruitment, primary screen, imaging, U2OS, beta-arrestin-GFP, LPI agonist (AID 2013); format: functional;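 also: antagonist potency measured as reduced agonist-driven arrestin aggregation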

O=C(NNC1=NCCCCC1)Nc1cccc(Cl)c1
EC50 [1]: 0.409 µM (active)
EC50 (H4): 0.242 µM (active)
IC50 (Prothrombin [2]): 7.74 µM (active)
IC50 (Coagulation factor XII): > 50 µM (inactive)

Cc1oc(-c2ccccc2Cl)nc1CSc1nc2c(c(=O)[nH]1)CCCC2
IC50 [3]: 5.75 µM (active)
EC50 [4]: 0.73 µM (active)
IC50 (Tumor necrosis factor): 3.09 µM (active)

Clc1ccc2[nH]c(-c3ccccc3)cc2c1
Absolute IC50 (CHOP) [5]: 10 µM

C=C(C)[C@@H]1CC[C@]2(C(=O)O)CC[C@]3(C)[C@H](CC[C@@H]4[C@@]5(C)CC[C@H](O)C(C)(C)[C@@H]5CC[C@]43C)[C@@H]12 [BETULINIC ACID]
IC50 (SUMO-activating enzyme [6]): 9.24 µM (active)
IC50 (SUMO-activating enzyme [7]): 13.2 µM (active)
AC50 [8]: 1.94 µM (active)
AC50 ([8]; Homo sapiens): 3.05 µM (active)

CC(=O)Oc1ccc(NC(=O)Cc2ccccc2)c(C(=O)O)c1
EC50 (Troponin, cardiac muscle): > 71.5 µM (inactive)

Cc1ccccc1NC(=O)/C=C/c1ccc([N+](=O)[O-])s1
AC50 (INS1): 6.17 µM (active)
IC50 (CHO): 2.22 µM (active)
Absolute IC50 (CHOP) [5]: 10 µM
EC50 [9]: 1.16 µM (active)
IC50 (Beta Lactamase): 13.7 µM (inactive)
EC50 [10]: 1.6 µM (active)

O=C1N=C(Nc2ccccc2)S/C1=C/c1cccs1
IC50 [11]: > 50 µM (not active)
IC50 (Coagulation factor XII): > 50 µM (inactive)

O=Cc1cn(-c2ccccc2)nc1-c1cc2cc(O)ccc2oc1=O
IC50 [12]: 19.4 µM (active)
IC50 (Prothrombin [13]): 35.5 µM (active)
IC50 (SUMO-activating enzyme [6]): 18.1 µM (active)
IC50 [14]: 1.96 µM (active)
IC50 [15]: > 100 µM (inactive)
IC50 [16]: 27.5 µM (inactive)
IC50 [17]: 3.02 µM (active)
IC50 (SUMO-activating enzyme [7]): 11.4 µM (active)
IC50 [18]: 7.28 µM (active)
IC50 [19]: > 66.6 µM (inactive)

N=c1c2c(ncn1Cc1ccco1)Oc1cc(O)ccc1C2c1ccccc1 (stereo not drawn)
IC50 [20]: 1.2 µM (active)
EC50 (Troponin, cardiac muscle): > 71.4 µM (inactive)
